Experimental data taken from US20160137714A1 (Thrasos Innovation, Inc., priority 2014, published 2016).
Values joined by “and” are separate entries in the source; they are usually repeats but may differ in a detail not shown here. Identical values can stand only once. Like-named read-outs stand apart in the source and are kept apart here. Blank lines part the entries; values can stand above or below the molecule they belong to. Positions of bridges follow the written chain, without caps; N, C: chain ends. Non-standard residues stand in square brackets, D forms with d. Residues, ends and D or L forms follow the SMILES beside them.

Tests used:
[1] = Pharmacokinetics of GPR-405 given at 1 mg/kg sc in CD1 mice; format: in vivo, mouse
Procedure: The study described herein involved single (mouse) or multiple (rat) blood collections after test article administration. Test articles are given by oral (PO), intravenous (IV), subcutaneous (SC) or intraperitoneal (IP) routes. All animals have a five day acclimatization period before dosing. Body weights are recorded prior to dosing. For mouse PK, 3 animals per group per time point are used (terminal bleed). For rats, multiple blood samplings per animal (adequately spaced in time) are taken. At the end of the study, all animals are euthanized by CO2 and final blood sample was collected via cardiac puncture.
Preparations are performed under a laminar flow hood using clean procedures. The formulations are kept at in a refrigerator set to maintain 4° C. before use. The dose volume for each animal is based on the most recent body weight measurement.
for PO administration, animal has either restricted access to food until the next day (12 h) before dosing or are allowed free access to food (depending on whether the PK will be done on fasted or fed animals). In all cases, animals has access to water ad libidum. PO dosing is done by gavage using a curved gavage needle (with rounded tip). All animals are observed for few seconds after injection to make sure there are no side effects. For IV administration, dosing (mice and rat) is done by the tail vein. Compound administration is done by slow (15-60 sec) bolus or by slow IV infusion (up to 1 h) using a calibrated syringe pump. For subcutaneous (dorsal region) and intraperitoneal injections, dosing is done with the appropriate needle and volume as per IACUC guidelines. GPR-405 was administered once by SC injection to each animal in the test group using a hypodermic needle attached to a syringe. No dose was administered to control animals.
Sampling is done via the tail, jugular or saphenous vein. Typical time for blood collection for PK are Pre, 5, 15, 30 minutes, 1 h, 2 h, 4 h, 8 h, 24 h. For mice, animals are terminated at each collection (cardiac puncture post-euthanasia). For rats, 200 μl are collected at each time point (max 3 time points per rat in 24 h). Plasma harvested from blood is mixed with 8.5% phosphoric acid (2% v/v of plasma). All plasma samples collected are stored in a freezer, set to maintain −80° C. until bioanalysis. At necropsy, tissues, organs and/or biological fluid are collected, as needed, for analysis. Urine collection is done using metabolic cages when required.
A stock solution of the test article is prepared at 250 μg/mL in DMSO. This solution is quantitatively added to blank mouse or rat plasma to generate a calibration curve. The linear range is from 0.25 to 250 ng/mL. A 175 μL aliquot of plasma is removed from each calibrant tube and processed using solid phase extraction (SPE). Study samples are first diluted with blank control mouse or rat plasma, and 175 μL is aliquoted for processing using SPE. An internal standard working solution (ISWS) is added to each calibrant and study sample (GPR-227 at 100 ng/mL in water). Plasma proteins are precipitated with 175 μL of methanol with 0.5% acetic acid (v/v). After centrifugation at 14,800 RPM for 10 minutes, a 300 μL aliquot of supernatant is diluted in water with 4% phosphoric acid (v/v). The entire diluted sample is extracted by SPE using a Waters Oasis HLB 96-well μElution plate. Samples are washed twice using a solution of acidified water (0.1% TFA, v/v) and 15% MeOH in water (v/v). Purified extracts are eluted into a 96-well collection plate using 40 μL of elution solvent. Standards and study samples are injected onto a Thermo Q-exactive LC-MS/MS system. Chromatographic separation is performed using a reversed-phase C18 HPLC column (Waters CSH C18, 50×2.1 mm, 2.5 μm). Analyte and internal standard are detected using the targeted selected ion monitoring (tSIM) scan mode. […]

[2] = Pharmacokinetic studies of THR-123 and GPR-294 i.v. and s.c. (FIG. 13, FIGS. 5-8); format: in vivo; details: in vivo; s.c. versus i.v., FIG. 13; read-out: bioavailable by sub-cutaneous administration
Procedure: A stock solution of THR-123 was prepared at 250 μg/mL in DMSO. This solution was quantitatively added to blank mouse plasma to generate a calibration curve. The linear range was from 0.25 to 250 ng/mL. A 175 μL aliquot of plasma from removed from each calibrant tube and processed using solid phase extraction (SPE). Study samples were first diluted with blank control mouse plasma, and 175 μL was aliquoted for processing using SPE. An internal standard working solution (ISWS) was added to each calibrant and study sample (GPR-227 at 100 ng/mL in water). Plasma proteins were precipitated with 175 μL of methanol with 0.5% acetic acid (v/v). After centrifugation at 14,800 RPM for 10 minutes, a 300 μL aliquot of supernatant was diluted in water with 4% phosphoric acid (v/v). The entire diluted sample was extracted by SPE using a Waters Oasis HLB 96-well μElution plate. Samples were washed twice using a solution of acidified water (0.1% TFA, v/v) and 15% MeOH in water (v/v). Purified extracts were eluted into a 96-well collection plate using 40 μL of elution solvent. Standards and study samples were injected onto a Thermo Q-exactive LC-MS/MS system. Chromatographic separation was performed using a reversed-phase C18 HPLC column (Waters CSH C18, 50×2.1 mm, 2.5 μm). Analyte and internal standard were detected using the targeted selected ion monitoring (tSIM) scan mode. Calibration curves were generated by using a weighted (1/concentration^2) linear regression of the peak area ratios (analyte/internal standard) versus the nominal concentration of the calibration standards. The concentration of the analyte in the study samples was determined by back-calculating the peak area ratios obtained using the linear regression and applying the appropriate dilution factors.
The study described herein involved single (mouse) or multiple (rat) blood collections after test article administration. Test articles are given by oral (PO), intravenous (IV), subcutaneous (SC) or intraperitoneal (IP) routes. All animals have a five day acclimatization period before dosing. Body weights are recorded prior to dosing. […]

[3] = mouse, in vivo, 1 mg/kg sc in CD1 mice

- AUMC(0-t) ([1]; 1 mg/kg sc in CD1 mice): 196073 ng*min^2/ml
- CL*F ([1]; 1 mg/kg sc in CD1 mice): 3.83 mL/min
- CL/kg*F ([1]; 1 mg/kg sc in CD1 mice): 120 mL/min/kg
- KeI ([1]; 1 mg/kg sc in CD1 mice): 0.04 min⁻¹
- Tmax ([1]; 1 mg/kg sc in CD1 mice): 5 min
- Vd*F ([1]; 1 mg/kg sc in CD1 mice): 172.28 mL
- Vss ([1]; 1 mg/kg sc in CD1 mice): 90.22 mL
- Terminal T1/2 ([1]; 1 mg/kg sc in CD1 mice, based on terminal decay rate): 31.21 min
- K′ (terminal decay rate) ([1]; 1 mg/kg sc in CD1 mice, log-linear fit of 30, 60, 240 min): 0.022 min⁻¹
- half-life ([1]; mouse, in vivo, sc, 1 mg/kg, 1 mg/kg sc in CD1 mice, based on terminal decay rate, read-out: Terminal T1/2): ~30 min
- half-life ([1]; mouse, in vivo, sc, 1 mg/kg, 1 mg/kg sc in CD1 mice, read-out: Biological T1/2 (overall half-life)): ~16 min
- Tmax ([1]; mouse, in vivo, sc, 1 mg/kg, 1 mg/kg sc in CD1 mice, read-out: Tmax): < 5 min
- AUC(0-inf) [1, 3]: 142 ng·h/mL
- AUC(0-t) [1, 3]: 142 ng·h/mL
- Cmax [1, 3]: 504 ng/mL
- MRT [1, 3]: 23.1 min
- bioavailability ([1]; mouse, in vivo, sc, mice, preliminary data): ~60%
- level at 5 min ([1]; mouse, plasma, 1 mg/kg sc, CD1 mice, 5 min, read-out: Mean Concentration): 504 ng/mL
- level at 0.25 h ([1]; mouse, plasma, 1 mg/kg sc, CD1 mice, 15 min, read-out: Mean Concentration): 117 ng/mL
- level at 0.5 h ([1]; mouse, plasma, 1 mg/kg sc, CD1 mice, 30 min, read-out: Mean Concentration): 68.8 ng/mL
- level at 1 h ([1]; mouse, plasma, 1 mg/kg sc, CD1 mice, 60 min, read-out: Mean Concentration): 15.9 ng/mL
- level at 4 h ([1]; mouse, plasma, 1 mg/kg sc, CD1 mice, 240 min, read-out: Mean Concentration): 0.4 ng/mL
- Final Concentration (individual mouse) ([1]; plasma, 1 mg/kg sc, CD1 mice, 30 min, 1 mg/kg): 49.0 ng/mL and 88.6 ng/mL
- Final Concentration (individual mouse) ([1]; plasma, 1 mg/kg sc, CD1 mice, 60 min, 1 mg/kg): 23.0 ng/mL and 11.9 ng/mL and 12.8 ng/mL
- Final Concentration (individual mouse) ([1]; plasma, 1 mg/kg sc, CD1 mice, 240 min): 0.4 ng/mL
SMILES: CC(C)C[C@@H]1NC(=O)[C@H](C(C)C)NC(=O)[C@H](CCC(N)=O)NC(=O)[C@H](CO)NC(=O)[C@H](CO)NC(=O)[C@H](CC(N)=O)NC(=O)[C@H](Cc2ccccc2)NC(=O)[C@H](Cc2ccc(O)cc2)NC(=O)[C@H](Cc2ccc(O)cc2)NC(=O)[C@@H](N)CSSC[C@@H](C(=O)N[C@@H](CCCCN)C(=O)N[C@@H](CCCNC(=N)N)C(=O)N[C@H](Cc2ccc(O)cc2)C(=O)N[C@@H](CCCNC(=N)N)C(=O)N[C@@H](CO)C(=O)O)NC1=O [GPR-405, Cys-Tyr-Tyr-Phe-Asn-Ser-Ser-Gln-Val-Leu-Cys-Lys-Arg-(D)Tyr-Arg-Ser] (H-CYYFNSSQVLCKR[dY]RS-OH; disulfide 1-11)
- clearance compared with renal clearance ([1]; 1 mg/kg sc in CD1 mice, mouse GFR approximately 10 ml/min/kg): about ten times greater than renal clearance
- Final Concentration (individual mouse) ([1]; plasma, 1 mg/kg sc, CD1 mice, 5 min, 1 mg/kg): 596.4 ng/ml and 411.9 ng/ml and 62.4 (outlier) ng/ml
- Final Concentration (individual mouse) ([1]; plasma, 1 mg/kg sc, CD1 mice, 15 min, 1 mg/kg): 114.2 ng/mL and 118.3 ng/mL and 118.4 ng/mL

- bioavailability [2]: 81%
SMILES: CC(C)C[C@@H]1NC(=O)[C@H](C(C)C)NC(=O)[C@H](CC(N)=O)NC(=O)[C@H](CO)NC(=O)[C@H](CO)NC(=O)[C@H](CC(=O)O)NC(=O)[C@H](CC(=O)O)NC(=O)[C@H](Cc2ccccc2)NC(=O)[C@H](Cc2ccc(O)cc2)NC(=O)[C@@H](N)CSSC[C@@H](C(=O)N[C@@H](CCCCN)C(=O)N[C@@H](CCCCN)C(=O)N[C@@H](Cc2ccc(O)cc2)C(=O)N[C@@H](CCCNC(=N)N)C(=O)N[C@@H](CO)C(=O)O)NC1=O [THR-123, Cys-Tyr-Phe-Asp-Asp-Ser-Ser-Asn-Val-Leu-Cys-Lys-Lys-Tyr-Arg-Ser] (H-CYFDDSSNVLCKKYRS-OH; disulfide 1-11)
